Structures are written as SMILES. Where only a bound is given, the exact number is not on record here.

Drawing on patent US20240043427A1 (Gilead Sciences, Inc., priority 2020, published 2024), this text covers EC50 and IC50 for 26 molecules.

Assay [1] has as its target T1, CD73 (Homo sapiens (Human), UniProt P21589). Description: MDA-MB-231 Cell Based CD73 Activity Assay (DMEM). The settings on record: MDA-MB-231-GFP cells, DMEM medium with 10% human plasma, 200 uM AMP.
Assay [2] addresses T1, CD73. It is filed as biochemical. The following applies: 1 mM NaH2PO4 in enzyme buffer, CD73 0.3 nM, AMP 15 uM.

T1 sequence (P21589 27-574): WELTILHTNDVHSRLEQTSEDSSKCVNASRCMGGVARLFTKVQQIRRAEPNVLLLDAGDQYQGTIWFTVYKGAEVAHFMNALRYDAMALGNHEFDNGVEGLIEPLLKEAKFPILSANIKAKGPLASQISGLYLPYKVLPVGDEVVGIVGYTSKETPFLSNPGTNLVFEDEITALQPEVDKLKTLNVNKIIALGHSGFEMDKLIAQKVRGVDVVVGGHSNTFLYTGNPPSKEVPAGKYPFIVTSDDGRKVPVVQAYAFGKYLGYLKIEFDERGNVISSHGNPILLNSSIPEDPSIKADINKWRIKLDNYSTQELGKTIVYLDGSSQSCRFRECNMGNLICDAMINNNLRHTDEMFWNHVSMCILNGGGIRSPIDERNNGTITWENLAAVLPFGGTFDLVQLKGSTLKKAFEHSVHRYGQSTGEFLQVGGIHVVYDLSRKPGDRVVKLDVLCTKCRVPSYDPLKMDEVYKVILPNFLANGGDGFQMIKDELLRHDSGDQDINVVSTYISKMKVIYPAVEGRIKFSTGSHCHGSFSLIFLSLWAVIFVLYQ

As for `O=c1[nH]cc(-c2cc([C@H]3C[C@@H]3c3cc4c(cn3)cnn4CC(F)(F)F)c3ncc(F)n3n2)c(=O)[nH]1` (racemic) [Example 604, 5-(3-fluoro-8-((1S,2S)-2-(1-(2,2,2-trifluoroethyl)-1H-pyrazolo[4,3-c]pyridin-6-yl)cyclopropyl)imidazo[1,2-b]pyridazin-6-yl)pyrimidine-2,4(1H,3H)-dione], the EC50 (commonly the concentration needed to bring the measured effect to its halfway point) on CD73 [1] is 0.12 nM. Moreover, at CD73 [2], 0.83 nM corresponded to half-maximal inhibition (IC50).
Regarding `O=c1[nH]cc(-c2cc(N3CC(F)(F)C4(CC4)C3)c3nncn3n2)c(=O)[nH]1` [Example 266, 5-(8-(7,7-difluoro-5-azaspiro[2.4]heptan-5-yl)-[1,2,4]triazolo[4,3-b]pyridazin-6-yl)pyrimidine-2,4(1H,3H)-dione], the EC50 at CD73 [1] was 13.5 nM. Also, the IC50 – broadly, the concentration at which inhibition is half-maximal – on CD73 [2] worked out at 1.93 nM.
As for `O=c1[nH]cc(-c2cc(NCCCc3ccccc3)c3nccn3n2)c(=O)[nH]1` [Example 486, 5-(8-((3-phenylpropyl)amino)imidazo[1,2-b]pyridazin-6-yl)pyrimidine-2,4(1H,3H)-dione], the EC50 at CD73 [1] was 1010 nM. In addition, on CD73 [2], the 50% inhibitory concentration (IC50) was > 250 nM.
In the same order, the values of `O=c1[nH]cc(-c2cc(N3CC4CC4(C(F)(F)F)C3)c3nccn3n2)c(=O)[nH]1` (stereo not shown) [Example 645, 5-(8-(1-(trifluoromethyl)-3-azabicyclo[3.1.0]hexan-3-yl)imidazo[1,2-b]pyridazin-6-yl)pyrimidine-2,4(1H,3H)-dione] are 79.6 nM and 49 nM.
Molecule `O=c1[nH]cc(-c2cc([C@H]3C[C@@H]3c3ccc(C(F)F)cc3)c3nccn3n2)c(=O)[nH]1` [Example 418, 5-(8-((1S,2S)-2-(4-(difluoromethyl)phenyl)cyclopropyl)imidazo[1,2-b]pyridazin-6-yl)pyrimidine-2,4(1H,3H)-dione] came in with a 50% effective concentration (EC50) at CD73 [1] of 4.71 nM. At CD73 [2], the 50% inhibitory concentration (IC50) is 0.96 nM.
In the same order, the values of `O=c1[nH]cc(-c2cc(N3CCC4CCC3C4)c3nccn3n2)c(=O)[nH]1` (stereo not shown) [Example 651, 5-(8-(2-azabicyclo[3.2.1]octan-2-yl)imidazo[1,2-b]pyridazin-6-yl)pyrimidine-2,4(1H,3H)-dione] are 480 nM and 129 nM.
`C[C@@H]1CN(c2cc(-c3c[nH]c(=O)[nH]c3=O)nn3c(F)cnc23)CC1(F)F` [Example 519, (R)-5-(8-(3,3-difluoro-4-methylpyrrolidin-1-yl)-3-fluoroimidazo[1,2-b]pyridazin-6-yl)pyrimidine-2,4(1H,3H)-dione]: on CD73 [1], the midpoint of the response, the EC50, lay at 18.3 nM. Further, on CD73 [2], the IC50 came out at 6.58 nM.
For `O=c1[nH]cc(-c2cc([C@H]3C[C@@H]3c3ccc(C(F)(F)F)cn3)c3nccn3n2)c(=O)[nH]1` (racemic) [Example 149, 5-(8-((1S,2S)-2-(5-(trifluoromethyl)pyridin-2-yl)cyclopropyl)imidazo[1,2-b]pyridazin-6-yl)pyrimidine-2,4(1H,3H)-dione and 5-(8-((1R,2R)-2-(5-(trifluoromethyl)pyridin-2-yl)cyclopropyl)imidazo[1,2-b]pyridazin-6-yl)pyrimidine-2,4(1H,3H)-dione] the same measures were 7.61 nM and 3.34 nM.
Molecule `N#CC12CC1CN(c1cc(-c3c[nH]c(=O)[nH]c3=O)nn3ccnc13)C2` (stereo not shown) [Example 354, 3-(6-(2,4-dioxo-1,2,3,4-tetrahydropyrimidin-5-yl)imidazo[1,2-b]pyridazin-8-yl)-3-azabicyclo[3.1.0]hexane-1-carbonitrile] showed an EC50 on CD73 [1] of 401 nM. The molecule also returned a concentration for half-maximal inhibition (IC50) against CD73 [2] of 90.8 nM.
The molecule `CC1(C)CN(c2cc(-c3c[nH]c(=O)[nH]c3=O)nc3ncnn23)CC1(F)F` [Example 420, 5-(7-(3,3-difluoro-4,4-dimethylpyrrolidin-1-yl)-[1,2,4]triazolo[1,5-a]pyrimidin-5-yl)pyrimidine-2,4(1H,3H)-dione] showed an EC50 on CD73 [1] of 13.7 nM. Also, the midpoint of inhibition against CD73 [2], the IC50, lay at 4.87 nM.
The molecule `O=C1N(CC(F)(F)C(F)(F)F)c2cc([C@H]3C[C@@H]3c3cc(-c4c[nH]c(=O)[nH]c4=O)nn4ccnc34)ccc2C12CC2` (racemic) [Example 737, 5-(8-((1S,2S)-2-(2′-oxo-1′-(2,2,3,3,3-pentafluoropropyl)spiro[cyclopropane-1,3′-indolin]-6′-yl)cyclopropyl)imidazo[1,2-b]pyridazin-6-yl)pyrimidine-2,4(1H,3H)-dione] returned a concentration giving a half-maximal response (EC50) on CD73 [1] of 0.18 nM. On CD73 [2], it took 1.79 nM to reach half-maximal inhibition (IC50).
Turning to `O=c1[nH]cc(-c2cc([C@H]3C[C@@H]3c3ccc4ccn(CC(F)(F)F)c4n3)c3nccn3n2)c(=O)[nH]1` [Example 704, 5-(8-((1S,2S)-2-(1-(2,2,2-trifluoroethyl)-1H-pyrrolo[2,3-b]pyridin-6-yl)cyclopropyl)imidazo[1,2-b]pyridazin-6-yl)pyrimidine-2,4(1H,3H)-dione], the EC50 at CD73 [1] is 0.36 nM. Moreover, the 50% inhibitory concentration (IC50) against CD73 [2] was determined as 0.73 nM.
For `O=c1[nH]cc(-c2cc([C@H]3C[C@@H]3c3ccc4c(C(F)(F)F)nn(CC(F)(F)F)c4c3)c3nccn3n2)c(=O)[nH]1` [Example 607, 5-(8-((1S,2S)-2-(1-(2,2,2-trifluoroethyl)-3-(trifluoromethyl)-1H-indazol-6-yl)cyclopropyl)imidazo[1,2-b]pyridazin-6-yl)pyrimidine-2,4(1H,3H)-dione] the same measures were 0.23 nM and 0.9 nM.
For `O=c1[nH]cc(-c2cc(N3CC(CC(F)F)C3)c3nccn3n2)c(=O)[nH]1` [Example 443, 5-(8-(3-(2,2-difluoroethyl)azetidin-1-yl)imidazo[1,2-b]pyridazin-6-yl)pyrimidine-2,4(1H,3H)-dione] the same measures were 188 nM and 157 nM.
For `N#Cc1ccc(O[C@@H]2CN(c3cc(-c4c[nH]c(=O)[nH]c4=O)nn4ccnc34)CC2(F)F)nc1` [Example 338, (R)-6-((1-(6-(2,4-dioxo-1,2,3,4-tetrahydropyrimidin-5-yl)imidazo[1,2-b]pyridazin-8-yl)-4,4-difluoropyrrolidin-3-yl)oxy)nicotinonitrile] the same measures were 72.8 nM and 10.9 nM.
For the molecule `CC1(C(F)F)CN(c2cc(-c3c[nH]c(=O)[nH]c3=O)nn3ccnc23)C1` [Example 399, 5-(8-(3-(difluoromethyl)-3-methylazetidin-1-yl)imidazo[1,2-b]pyridazin-6-yl)pyrimidine-2,4(1H,3H)-dione], the concentration giving a half-maximal response (EC50) at CD73 [1] came out at 27 nM. Also, at CD73 [2], 12.2 nM corresponded to half-maximal inhibition (IC50).
Molecule `N#Cc1cc([C@H]2C[C@@H]2c2cc(-c3c[nH]c(=O)[nH]c3=O)nn3ccnc23)ccc1Cl` [Example 553, 2-chloro-5-((1S,2S)-2-(6-(2,4-dioxo-1,2,3,4-tetrahydropyrimidin-5-yl)imidazo[1,2-b]pyridazin-8-yl)cyclopropyl)benzonitrile] registered a concentration giving a half-maximal response (EC50) at CD73 [1] of 6.89 nM. On CD73 [2], this molecule returned a half-maximal inhibitory concentration (IC50) of 1.39 nM.
On to `Cc1cc([C@H]2C[C@@H]2c2cc(-c3c[nH]c(=O)[nH]c3=O)nn3ccnc23)ccc1C#N` [Example 560, 4-((1S,2S)-2-(6-(2,4-dioxo-1,2,3,4-tetrahydropyrimidin-5-yl)imidazo[1,2-b]pyridazin-8-yl)cyclopropyl)-2-methylbenzonitrile], for which, at CD73 [1], the half-maximal effective concentration (EC50) was 2.86 nM. The molecule also returned a half-inhibitory concentration (IC50) at CD73 [2] of 0.85 nM.
As for `O=C(CC(F)(F)F)N1CCC12CCN(c1cc(-c3c[nH]c(=O)[nH]c3=O)nn3ccnc13)C2` (stereo not shown) [Example 655, 5-(8-(1-(3,3,3-trifluoropropanoyl)-1,6-diazaspiro[3.4]octan-6-yl)imidazo[1,2-b]pyridazin-6-yl)pyrimidine-2,4(1H,3H)-dione], the EC50 on CD73 [1] was determined as 254 nM. In addition, the IC50 at CD73 [2] worked out at 40.4 nM.
For `CC(C)COc1cc(-c2c[nH]c(=O)[nH]c2=O)nn2ccnc12` [Example 678, 5-(8-isobutoxyimidazo[1,2-b]pyridazin-6-yl)pyrimidine-2,4(1H,3H)-dione] the same measures were 38.8 nM and 23.9 nM.
At CD73 [1], `O=C1N(CC(F)(F)F)c2cc([C@H]3C[C@@H]3c3cc(-c4c[nH]c(=O)[nH]c4=O)nn4ccnc34)ccc2C12CC2` (racemic) [Example 382, 5-(8-((1S,2S)-2-(2′-oxo-1′-(2,2,2-trifluoroethyl)spiro[cyclopropane-1,3′-indolin]-6′-yl)cyclopropyl)imidazo[1,2-b]pyridazin-6-yl)pyrimidine-2,4(1H,3H)-dione] returned an EC50 of 0.13 nM. The molecule further gave a half-maximal inhibitory concentration (IC50) at CD73 [2] of 1.63 nM.
The molecule `O=C(Nc1ccc(F)cc1F)OCC(F)(F)COc1cc(-c2c[nH]c(=O)[nH]c2=O)nn2ccnc12` [Example 238, 3-((6-(2,4-dioxo-1,2,3,4-tetrahydropyrimidin-5-yl)imidazo[1,2-b]pyridazin-8-yl)oxy)-2,2-difluoropropyl (2,4-difluorophenyl)carbamate] registered an EC50 on CD73 [1] of 5.18 nM. This molecule also registered an IC50 against CD73 [2] of 0.36 nM.
For `O=c1[nH]cc(-c2cc(N3CC(F)(F)C4(CN(Cc5cccc(F)c5)C4)C3)c3nccn3n2)c(=O)[nH]1` [Example 502, 5-(8-(8,8-difluoro-2-(3-fluorobenzyl)-2,6-diazaspiro[3.4]octan-6-yl)imidazo[1,2-b]pyridazin-6-yl)pyrimidine-2,4(1H,3H)-dione] the same measures were 44.4 nM and 9.06 nM.
In the same order, the values of `O=c1[nH]cc(-c2cc(N3CC[C@H](OC(F)F)C3)c3nccn3n2)c(=O)[nH]1` [Example 348, (S)-5-(8-(3-(difluoromethoxy)pyrrolidin-1-yl)imidazo[1,2-b]pyridazin-6-yl)pyrimidine-2,4(1H,3H)-dione] are 121 nM and 54 nM.
Consider `CC(=O)N1CCC12CCN(c1cc(-c3c[nH]c(=O)[nH]c3=O)nn3ccnc13)C2` (stereo not shown) [Example 656, 5-(8-(1-acetyl-1,6-diazaspiro[3.4]octan-6-yl)imidazo[1,2-b]pyridazin-6-yl)pyrimidine-2,4(1H,3H)-dione], for which, on CD73 [1], the EC50 was found to be 57 nM. On CD73 [2], it took 10.1 nM to reach half-maximal inhibition (IC50).
At CD73 [1], `O=c1[nH]cc(-c2cc([C@@H]3C[C@H]3c3cc4c(cn3)cnn4CC(F)(F)F)c3ncc(F)n3n2)c(=O)[nH]1` [Example 612, 5-(3-fluoro-8-((1R,2R)-2-(1-(2,2,2-trifluoroethyl)-1H-pyrazolo[4,3-c]pyridin-6-yl)cyclopropyl)imidazo[1,2-b]pyridazin-6-yl)pyrimidine-2,4(1H,3H)-dione] yielded a concentration giving a half-maximal response (EC50) of 1.02 nM. This molecule registered an IC50 at CD73 [2] of 6.06 nM.
